From patent US20230093099A1, “COMPOUNDS AND METHODS OF TREATING CANCERS” (CULLGEN (SHANGHAI), INC., priority 2019, published 2023)
pIC50: −log10 of the molar value.

These compounds were tested on RS4;11 cells (assay: Cell viability assay (CellTiter-Glo) in RS4;11 cells). Conditions: Homo sapiens, 72 h; RS4;11 ALL cells treated for three days; read-out: cell viability inhibition IC50.
Assay type: cell-based
Procedure, shortened: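 RS4;11 cells seeded at 5000 per well, exposed for 3 days to 8- or 12-point 3-fold serial dilutions. Viability read by CellTiter-Glo luminescence; IC50 fitted by nonlinear least-squares regression.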

**Q.** O=C(CN1CCC(n2cc(-c3cnc4cccc(-c5cc(F)c(CN6CCOCC6)c(F)c5)c4n3)cn2)CC1)NCCCCCCCCNc1ccc2c(c1)C(=O)N(C1CCC(=O)NC1=O)C2=O (centres unmarked) [JA-180, 2-(4-(4-(8-(3,5-difluoro-4-(morpholinomethyl)phenyl)quinoxalin-2-yl)-1H-pyrazol-1-yl)piperidin-1-yl)-N-(8-((2-(2,6-dioxopiperidin-3-yl)-1,3-dioxoisoindolin-5-yl)amino)octyl)acetamide] was tested. Which pIC50 did it give?
**A.** > 7.00

Same assay, conditions: Homo sapiens, 72 h; RS4;11 cells; cell viability, 3 days, CellTiter-Glo; read-out: IC50

**Q.** Cc1cnc(Nc2ccc(N3CCN(CC(=O)NCCCCCCCCC(=O)N[C@H](C(=O)N4C[C@H](O)C[C@H]4C(=O)NCc4ccc(-c5scnc5C)cc4)C(C)(C)C)CC3)cc2)nc1Nc1cccc(S(=O)(=O)NC(C)(C)C)c1 [JA-104, (2S,4R)-1-((S)-2-(9-(2-(4-(4-((4-((3-(N-(tert-Butyl)sulfamoyl)phenyl)amino)-5-methylpyrimidin-2-yl)amino)phenyl)piperazin-1-yl)acetamido)nonanamido)-3,3-dimethylbutanoyl)-4-hydroxy-N-(4-(4-methylthiazol-5-yl)benzyl)pyrrolidine-2-carboxamide] was tested. Which pIC50 did it give?
**A.** < 5.00

**Q.** CS(=O)(=O)c1ccc(-c2cccc3nc(Nc4ccc(N5CCN(CC(=O)NCCOCCOCCOCCNc6cccc7c6C(=O)N(C6CCC(=O)NC6=O)C7=O)CC5)cc4)nn23)cc1 (centres unmarked) [JA-127, N-(2-(2-(2-(2-((2-(2,6-Dioxopiperidin-3-yl)-1,3-dioxoisoindolin-4-yl)amino)ethoxy)ethoxy)ethoxy)ethyl)-2-(4-(4-((5-(4-(methylsulfonyl)phenyl)-[1,2,4]triazolo[1,5-a]pyridin-2-yl)amino)phenyl)piperazin-1-yl)acetamide] was tested. Which pIC50 did it give?
**A.** < 5.00

**Q.** O=C1CCC(N2C(=O)c3ccc(NCCOCCOCCC(=O)N4CCC(n5cc(-c6cnc7cccc(-c8cc(F)c(CN9CCOCC9)c(F)c8)c7n6)cn5)CC4)cc3C2=O)C(=O)N1 (centres unmarked) [JA-183, 5-((2-(2-(3-(4-(4-(8-(3,5-Difluoro-4-(morpholinomethyl)phenyl)quinoxalin-2-yl)-1H-pyrazol-1-yl)piperidin-1-yl)-3-oxopropoxy)ethoxy)ethyl)amino)-2-(2,6-dioxopiperidin-3-yl)isoindoline-1,3-dione] was tested. Which pIC50 did it give?
**A.** < 5.00

**Q.** How did the pIC50 turn out when Cc1ncsc1-c1ccc(CNC(=O)[C@@H]2C[C@@H](O)CN2C(=O)[C@@H](NC(=O)COCC(=O)N2CCC(n3cc(-c4cnc5cccc(-c6cc(F)c(CN7CCOCC7)c(F)c6)c5n4)cn3)CC2)C(C)(C)C)cc1 [JA-057, (2S,4R)-1-[(2S)-2-[[2-[2-[4-[4-[8-[3,5-Difluoro-4-(morpholinomethyl)phenyl]quinoxalin-2-yl]pyrazol-1-yl]-1-piperidyl]-2-oxo-ethoxy]acetyl]amino]-3,3-dimethyl-butanoyl]-4-hydroxy-N-[[4-(4-methylthiazol-5-yl)phenyl]methyl]pyrrolidine-2-carboxamide] was run?
**A.** < 5.00

**Q.** How did the pIC50 turn out when O=C1CCC(N2C(=O)c3cccc(NCCOCCC(=O)N4CCC(n5cc(-c6cnc7cccc(-c8cc(F)c(CN9CCOCC9)c(F)c8)c7n6)cn5)CC4)c3C2=O)C(=O)N1 (centres unmarked) [JA-045, 4-[2-[3-[4-[4-[8-[3,5-Difluoro-4-(morpholinomethyl)phenyl]quinoxalin-2-yl]pyrazol-1-yl]-1-piperidyl]-3-oxo-propoxy]ethylamino]-2-(2,6-dioxo-3-piperidyl)isoindoline-1,3-dione] was run?
**A.** 5.90

**Q.** How did the pIC50 turn out when O=C(CN1CCC(n2cc(-c3cnc4cccc(-c5cc(F)c(CN6CCOCC6)c(F)c5)c4n3)cn2)CC1)NCCNc1ccc2c(c1)C(=O)N(C1CCC(=O)NC1=O)C2=O (centres unmarked) [JA-174, 2-(4-(4-(8-(3,5-Difluoro-4-(morpholinomethyl)phenyl)quinoxalin-2-yl)-1H-pyrazol-1-yl)piperidin-1-yl)-N-(2-((2-(2,6-dioxopiperidin-3-yl)-1,3-dioxoisoindolin-5-yl)amino)ethyl)acetamide] was run?
**A.** 5.61

**Q.** With O=C1CCC(N2Cc3cc(NCCCCCC(=O)N4CCC(n5cc(-c6cnc7cccc(-c8cc(F)c(CN9CCOCC9)c(F)c8)c7n6)cn5)CC4)ccc3C2=O)C(=O)N1 (centres unmarked) [JA-273, 3-(5-((6-(4-(4-(8-(3,5-difluoro-4-(morpholinomethyl)phenyl)quinoxalin-2-yl)-1H-pyrazol-1-yl)piperidin-1-yl)-6-oxohexyl)amino)-1-oxoisoindolin-2-yl)piperidine-2,6-dione] as the compound, how does the pIC50 read?
**A.** 7.18

**Q.** How did the pIC50 turn out when Cc1ncsc1-c1ccc(CNC(=O)[C@@H]2C[C@@H](O)CN2C(=O)[C@@H](NC(=O)COCCOCC(=O)N2CCN(c3ccc(Nc4nc5cccc(-c6ccc(S(C)(=O)=O)cc6)n5n4)cc3)CC2)C(C)(C)C)cc1 [JA-073, (2S,4R)-1-((S)-3,3-Dimethyl-2-(2-(2-(2-(4-(4-((5-(4-(methylsulfonyl)phenyl)-[1,2,4]triazolo[1,5-a]pyridin-2-yl)amino)phenyl)piperazin-1-yl)-2-oxoethoxy)ethoxy)acetamido)butanoyl)-4-hydroxy-N-(4-(4-methylthiazol-5-yl)benzyl)pyrrolidine-2-carboxamide] was run?
**A.** 5.34

**Q.** O=C(CN1CCC(n2cc(-c3cnc4cccc(-c5cc(F)c(CN6CCOCC6)c(F)c5)c4n3)cn2)CC1)NCCCCCCCCNc1ccc2c(c1)C(=O)N(C1CCC(=O)NC1=O)C2=O (centres unmarked) [JA-180, 2-(4-(4-(8-(3,5-difluoro-4-(morpholinomethyl)phenyl)quinoxalin-2-yl)-1H-pyrazol-1-yl)piperidin-1-yl)-N-(8-((2-(2,6-dioxopiperidin-3-yl)-1,3-dioxoisoindolin-5-yl)amino)octyl)acetamide] was tested. Which pIC50 did it give?
**A.** 7.05

**Q.** How did the pIC50 turn out when Cc1ncsc1-c1ccc(CNC(=O)[C@@H]2C[C@@H](O)CN2C(=O)[C@@H](NC(=O)CCOCCNC(=O)CN2CCC(n3cc(-c4cnc5cccc(-c6cc(F)c(CN7CCOCC7)c(F)c6)c5n4)cn3)CC2)C(C)(C)C)cc1 [JA-160, (2S,4R)-1-((S)-2-(3-(2-(2-(4-(4-(8-(3,5-Difluoro-4-(morpholinomethyl)phenyl)quinoxalin-2-yl)-1H-pyrazol-1-yl)piperidin-1-yl)acetamido)ethoxy)propanamido)-3,3-dimethylbutanoyl)-4-hydroxy-N-(4-(4-methylthiazol-5-yl)benzyl)pyrrolidine-2-carboxamide] was run?
**A.** < 5.00

**Q.** How did the pIC50 turn out when CS(=O)(=O)c1ccc(-c2cccc3nc(Nc4ccc(N5CCN(C(=O)CCOCCNc6ccc7c(c6)C(=O)N(C6CCC(=O)NC6=O)C7=O)CC5)cc4)nn23)cc1 (centres unmarked) [JA-195, 2-(2,6-Dioxopiperidin-3-yl)-5-((2-(3-(4-(4-((5-(4-(methylsulfonyl)phenyl)-[1,2,4]triazolo[1,5-a]pyridin-2-yl)amino)phenyl)piperazin-1-yl)-3-oxopropoxy)ethyl)amino)isoindoline-1,3-dione] was run?
**A.** < 5.00

**Q.** How did the pIC50 turn out when Cc1cnc(Nc2ccc(N3CCN(CC(=O)NCCCCCNc4ccc5c(c4)C(=O)N(C4CCC(=O)NC4=O)C5=O)CC3)cc2)nc1Nc1cccc(S(=O)(=O)NC(C)(C)C)c1 (centres unmarked) [JA-244, 2-(4-(4-((4-((3-(N-(tert-butyl)sulfamoyl)phenyl)amino)-5-methylpyrimidin-2-yl)amino)phenyl)piperazin-1-yl)-N-(5-((2-(2,6-dioxopiperidin-3-yl)-1,3-dioxoisoindolin-5-yl)amino)pentyl)acetamide] was run?
**A.** < 5.00

**Q.** Cn1c(=O)n(C2CCC(=O)NC2=O)c2cccc(NCCCCC(=O)N3CCN(c4ccc(Nc5nc6cccc(-c7ccc(S(C)(=O)=O)cc7)n6n5)cc4)CC3)c21 (centres unmarked) [JA-290, 3-(3-Methyl-4-((5-(4-(4-((5-(4-(methylsulfonyl)phenyl)-[1,2,4]triazolo[1,5-a]pyridin-2-yl)amino)phenyl)piperazin-1-yl)-5-oxopentyl)amino)-2-oxo-2,3-dihydro-1H-benzo[d]imidazol-1-yl)piperidine-2,6-dione] was tested. Which pIC50 did it give?
**A.** < 6.30

**Q.** Cc1cnc(Nc2ccc(N3CCN(C(=O)CCOCCOCCNc4ccc5c(c4)C(=O)N(C4CCC(=O)NC4=O)C5=O)CC3)cc2)nc1Nc1cccc(S(=O)(=O)NC(C)(C)C)c1 (centres unmarked) [JA-233, N-(tert-butyl)-3-((2-((4-(4-(3-(2-(2-((2-(2,6-dioxopiperidin-3-yl)-1,3-dioxoisoindolin-5-yl)amino)ethoxy)ethoxy)propanoyl)piperazin-1-yl)phenyl)amino)-5-methylpyrimidin-4-yl)amino)benzenesulfonamide] was tested. Which pIC50 did it give?
**A.** 6.54

**Q.** O=C(CN1CCC(n2cc(-c3cnc4cccc(-c5cc(F)c(CN6CCOCC6)c(F)c5)c4n3)cn2)CC1)NCCCCCCCCNc1cccc2c1C(=O)N(C1CCC(=O)NC1=O)C2=O (centres unmarked) [JA-149, 2-(4-(4-(8-(3,5-Difluoro-4-(morpholinomethyl)phenyl)quinoxalin-2-yl)-1H-pyrazol-1-yl)piperidin-1-yl)-N-(8-((2-(2,6-dioxopiperidin-3-yl)-1,3-dioxoisoindolin-4-yl)amino)octyl)acetamide] was tested. Which pIC50 did it give?
**A.** < 5.00

**Q.** How did the pIC50 turn out when O=C1CCC(N2C(=O)c3cccc(NCCCC(=O)N4CCC(n5cc(-c6cnc7cccc(-c8cc(F)c(CN9CCOCC9)c(F)c8)c7n6)cn5)CC4)c3C2=O)C(=O)N1 (centres unmarked) [JA-005, 4-[[4-[4-[4-[8-[3,5-Difluoro-4-(morpholinomethyl)phenyl]quinoxalin-2-yl]pyrazol-1-yl]-1-piperidyl]-4-oxo-butyl]amino]-2-(2,6-dioxo-3-piperidyl)isoindoline-1,3-dione] was run?
**A.** 6.29

**Q.** With Cc1ncsc1-c1ccc(CNC(=O)[C@@H]2C[C@@H](O)CN2C(=O)[C@@H](NC(=O)CCCCC(=O)N2CCN(c3ccc(Nc4nc5cccc(-c6ccc(S(C)(=O)=O)cc6)n5n4)cc3)CC2)C(C)(C)C)cc1 [JA-074, (2S,4R)-1-((S)-3,3-Dimethyl-2-(6-(4-(4-((5-(4-(methylsulfonyl)phenyl)-[1,2,4]triazolo[1,5-a]pyridin-2-yl)amino)phenyl)piperazin-1-yl)-6-oxohexanamido)butanoyl)-4-hydroxy-N-(4-(4-methylthiazol-5-yl)benzyl)pyrrolidine-2-carboxamide] as the compound, how does the pIC50 read?
**A.** < 5.00

**Q.** With Cc1cnc(Nc2ccc(N3CCN(C(=O)CCCCNc4cccc5c4C(=O)N(C4CCC(=O)NC4=O)C5=O)CC3)cc2)nc1Nc1cccc(S(=O)(=O)NC(C)(C)C)c1 (centres unmarked) [JA-107, N-(tert-Butyl)-3-((2-((4-(4-(5-((2-(2,6-dioxopiperidin-3-yl)-1,3-dioxoisoindolin-4-yl)amino)pentanoyl)piperazin-1-yl)phenyl)amino)-5-methylpyrimidin-4-yl)amino)benzenesulfonamide] as the compound, how does the pIC50 read?
**A.** 5.64

**Q.** How did the pIC50 turn out when CS(=O)(=O)c1ccc(-c2cccc3nc(Nc4ccc(N5CCN(C(=O)CCCCCCNc6cccc7c6C(=O)N(C6CCC(=O)NC6=O)C7=O)CC5)cc4)nn23)cc1 (centres unmarked) [JA-078, 2-(2,6-Dioxo-piperidin-3-yl)-4-[7-(4-{4-[5-(4-methanesulfonyl-phenyl)-[1,2,4]triazolo[1,5-a]pyridin-2-ylamino]-phenyl}-piperazin-1-yl)-7-oxo-heptylamino]-isoindole-1,3-dione] was run?
**A.** < 5.00
